Reference: article PMC7723077, “Spatial Profiles of Phosphate in Roots Indicate Developmental Control of Uptake, Recycling, and Sequestration” (Plant Physiology, 2020)

Target: T1, cpFLIPPi-5.3m
T1 construct: gene PiBP
Conditions: in vivo, root epidermal cells of transition zone; injection buffer 50 mM MOPS-KOH pH 7.3, 0.5 mM MgCl2, total K+ 75 mM

Kd: 7.4 ± 1.7 mM
Structure (SMILES): O=P(O)(O)O [Pi, inorganic phosphate]
